Source: ChEMBL document CHEMBL5620344, “Discovery of novel 5-(2-hydroxyphenyl)-2-phthalide-3(3H)-pyrazolones as balanced multifunctional agents against Alzheimer's disease” (Eur J Med Chem, 2023)
The source made the active and inactive calls. The rule behind the calls is not given here.

Experiments:
[1] = Selectivity index, ratio of IC50 for human recombinant MAO-A to IC50 for human recombinant MAO-B
[2] = AUC (0 to t) in BALB/c mouse plasma at 30 mg/kg, ig; assay type: ADME, organism-based; settings: po
Mus musculus [3] = test: Anti-oxidative stress against amyloid beta (1-42)-induced alzheimer's disease mouse model assessed as increase in SOD activity in hippocampus at 8 to 32 mg/kg and measured on day 6; assay type: functional, organism-based; settings: dose 8-32 mg/kg, time 6.0 day
[4] = biological target: Amyloid-beta precursor protein (Homo sapiens) (UniProt P05067); test: Disaggregation of self-induced amyloid beta (1 to 42) (unknown origin) preformed fibrils assessed as reduction in long fibrils formed incubated for 24 hrs by transmission electron microscopy
[5] = Tmax in BALB/c mouse brain at 30 mg/kg, ig; assay type: ADME, organism-based; settings: po
[6] = Metal chelating activity assessed as compound-Zn2+ complex formation by measuring red shift of absorption peak with declined absorption at 37.5 uM in presence of ZnCl2 by UV-Vis spectrometry
PC-12 [7] = test: Neuroprotective activity against H2O2-induced cytotoxicity in rat PC12 cells assessed as cell viability at 10 uM by MTT assay (reference value: 54.9%); assay type: functional; settings: read-out: Activity
[8] = Tmax in BALB/c mouse plasma at 30 mg/kg, ig; assay type: ADME, organism-based; settings: po
[9] = Metal chelating activity assessed as compound-Cu2+ complex formation at stoichiometric ratio of 1:1 in presence of CuCl2 by UV-Vis spectroscopy
[10] = Metal chelating activity assessed as compound-Cu2+ complex formation by measuring red shift of absorption peak with declined absorption at 37.5 uM in presence of CuCl2 by UV-Vis spectrometry
[11] = Metal chelating activity assessed as compound-Al3+ complex formation by measuring blue shift of maximum absorption peak at 37.5 uM in presence of AlCl3 by UV-Vis spectrometry
[12] = biological target: Amyloid-beta precursor protein (Homo sapiens) (UniProt P05067); test: Disaggregation of Cu2+-induced amyloid beta (1 to 42) (unknown origin) preformed fibrils assessed as degradation of crude fibrils incubated for 24 hrs by transmission electron microcopy
BV-2 = test: Anti-neuroinflammatory activity against LPS-stimulated mouse BV-2 cells assessed as inhibition of TNF-alpha release at 2.5 uM by ELISA; assay type: functional
[13] = biological target: Amyloid-beta precursor protein (Homo sapiens) (UniProt P05067); test: Inhibition of self-induced amyloid beta (1 to 42) (unknown origin) aggregation assessed as decrease in number of aggregates formed incubated for 24 hrs by transmission electron microscopy
[14] = AUC (0 to t) in BALB/c mouse brain at 30 mg/kg, ig; assay type: ADME, organism-based; settings: in vivo, po
[15] = biological target: Amyloid-beta precursor protein (Homo sapiens) (UniProt P05067); test: Disaggregation of self-induced amyloid beta (1 to 42) (unknown origin) preformed fibrils at 25 uM by ThT fluorescence assay
[16] = Cmax in BALB/c mouse brain at 30 mg/kg, ig; assay type: ADME, organism-based; settings: po
Mus musculus [17] = test: Antialzheimer activity against amyloid beta (1-42)-induced alzheimer's disease mouse model assessed as decrease in amyloid beta (1 to 42) level in hippocampus at 32 mg/kg and measured on day 6 by ELISA; assay type: functional, organism-based; settings: time 6.0 day
[18] = Permeability of the compound at 100 ug/ml by PAMPA-BBB assay; assay type: ADME; settings: dose 100 µg/ml, read-out: permeability
[19] = Half life in BALB/c mouse plasma at 30 mg/kg, ig; assay type: ADME, organism-based; settings: po
[20] = Antioxidant activity assessed as trolox equivalent of ORAC radical scavenging activity by ORAC-FL assay relative to trolox; assay type: functional
[21] = Metal chelating activity assessed as compound-Fe2+ complex formation by measuring increase in absorbance at 37.5 uM in presence of FeSO4 by UV-vis spectrometry
PC-12 [22] = test: Neuroprotective activity against H2O2-induced cytotoxicity in rat PC12 cells assessed as cell viability at 2.5 uM by MTT assay (reference value: 54.9%); assay type: functional; settings: read-out: Activity
MAO-A = biological target: T1, MAO-A (Homo sapiens, UniProt P21397); test: Inhibition of human recombinant MAO-A at 10 uM
T1 sequence (P21397 whole entry): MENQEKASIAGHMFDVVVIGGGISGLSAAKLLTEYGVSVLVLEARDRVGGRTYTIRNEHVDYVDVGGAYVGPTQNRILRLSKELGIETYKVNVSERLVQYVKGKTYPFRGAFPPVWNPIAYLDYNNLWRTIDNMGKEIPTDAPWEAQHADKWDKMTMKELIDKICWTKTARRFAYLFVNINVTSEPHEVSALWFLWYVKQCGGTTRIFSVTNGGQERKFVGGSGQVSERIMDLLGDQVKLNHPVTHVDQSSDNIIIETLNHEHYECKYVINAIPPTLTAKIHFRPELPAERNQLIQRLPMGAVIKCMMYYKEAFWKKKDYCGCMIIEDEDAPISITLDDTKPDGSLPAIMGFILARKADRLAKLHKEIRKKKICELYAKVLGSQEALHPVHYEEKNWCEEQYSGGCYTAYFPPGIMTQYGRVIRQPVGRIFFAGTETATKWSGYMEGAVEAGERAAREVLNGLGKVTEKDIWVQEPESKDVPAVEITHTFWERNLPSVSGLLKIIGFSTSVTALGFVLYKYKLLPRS

[23] = biological target: Amyloid-beta precursor protein (Homo sapiens) (UniProt P05067); test: Disaggregation of Cu2+-induced amyloid beta (1 to 42) (unknown origin) preformed fibrils assessed as decrease in size of aggregates incubated for 24 hrs by transmission electron microcopy

Sequence of Amyloid-beta precursor protein (Homo sapiens) (P05067 whole entry): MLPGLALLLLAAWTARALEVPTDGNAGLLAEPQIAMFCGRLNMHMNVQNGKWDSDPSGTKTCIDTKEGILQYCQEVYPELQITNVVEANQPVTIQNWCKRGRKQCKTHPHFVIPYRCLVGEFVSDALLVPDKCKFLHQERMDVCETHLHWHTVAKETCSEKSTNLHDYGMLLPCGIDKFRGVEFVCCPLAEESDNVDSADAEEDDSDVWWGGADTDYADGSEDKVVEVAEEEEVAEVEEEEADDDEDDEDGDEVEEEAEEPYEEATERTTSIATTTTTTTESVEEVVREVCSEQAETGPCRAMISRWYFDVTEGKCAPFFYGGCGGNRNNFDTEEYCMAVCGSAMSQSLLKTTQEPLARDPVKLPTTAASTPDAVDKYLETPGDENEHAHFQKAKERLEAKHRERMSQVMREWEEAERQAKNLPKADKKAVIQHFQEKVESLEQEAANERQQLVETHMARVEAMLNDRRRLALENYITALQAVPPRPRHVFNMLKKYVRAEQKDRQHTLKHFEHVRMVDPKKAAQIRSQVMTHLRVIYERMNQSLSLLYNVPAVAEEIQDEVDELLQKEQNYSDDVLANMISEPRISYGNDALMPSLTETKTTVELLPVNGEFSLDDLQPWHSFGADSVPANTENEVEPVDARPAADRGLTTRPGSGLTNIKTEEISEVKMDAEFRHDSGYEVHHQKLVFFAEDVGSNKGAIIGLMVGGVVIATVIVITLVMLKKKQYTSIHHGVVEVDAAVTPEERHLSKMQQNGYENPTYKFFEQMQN

For `CCCCCCCC1OC(=O)c2cc(N3N=C(c4cc(Cl)ccc4O)CC3=O)ccc21` (stereo not given), the Ratio IC50 [1] was greater than 24.4, the AUC(0-t) [2] was 2940 ng·h/mL and the Activity (Mus musculus [3]) was “Dose-Dependent Effect”. The Activity [4] was “Active”, the Tmax [5] was 1 h and the Activity [6] was “Active”. For the same compound, the viability at 10 µM (PC-12 [7]) was 77.7%, the Tmax [8] was 0.5 h and the Activity [9] was “Active”. The Activity [10] was “Active”, the Activity [11] was “Active” and the Activity [12] was “Active”. The inhibition at 2.5 µM (BV-2) was 51.6%, the inhibition [13] was “Active” and the AUCt [14] was 2032.5 ng·h/g. The Activity [15] was 81.9%, the Cmax [16] was 923 ng/g and the Activity (Mus musculus [17]) was “Active”. For the same compound, the Papp at 100 ug/ml [18] was 6.37 ×10⁻⁶ cm/s, the half-life [19] was 1.15 h and the Ratio [20] was 1.16 equiv. For the same compound, the Activity [21] was “Active”, the viability at 2.5 µM (PC-12 [22]) was 73.4% and the inhibition at 10 µM (MAO-A) was 32.6%. The Activity [23] was “Active”.
